Source: ChEMBL document CHEMBL1201862, “PubChem BioAssay data set” (2004)
Counter-ions that a name gives are not always drawn.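 The compound was tested at five concentrations on cells cultured in 96-well plates, with a 48-hour exposure period. GI50 is the concentration that inhibits growth by half.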 Calls of active or inactive are those of the source. Cut-off read from the data, not from the text of the source: active = GI50 up to about 1.1 µM and inactive = higher.

Assays:
Assay in all cases: NCI tumour cell line growth inhibition, 48 h
[1] = tested on: MOLT-4
[2] = tested on: ACHN
[3] = tested on: LOX IMVI
[4] = tested on: SN12C
[5] = tested on: 786-0
[6] = tested on: COLO 205
[7] = tested on: NCI-H522
[8] = tested on: HL-60
[9] = tested on: EKVX
[10] = tested on: SNB-75
[11] = tested on: KM12
[12] = tested on: OVCAR-8
[13] = tested on: SF-295
[14] = tested on: SF-539
[15] = tested on: HOP-62
[16] = tested on: A549
[17] = tested on: MDA-MB-435
[18] = tested on: MDA-N

Measured: GI50

CCOC(=O)C(CNc1ccc(O)cc1)NC(=O)c1ccccc1 (stereo not given)
inactive: [1] 50.8 µM | [2] 54.8 µM | [3] 99.8 µM | [4] > 100 µM | [5] 64.3 µM | [6] > 100 µM | [7] 75.3 µM | [8] 25.6 µM | [9] > 100 µM | [10] > 100 µM | [11] > 100 µM | [12] > 100 µM | [13] > 100 µM | [14] > 100 µM | [15] > 100 µM | [16] > 100 µM

CC1(Cl)C(=O)NC(=O)N(C2CC(N=[N+]=[N-])C(CO)O2)C1N=[N+]=[N-] (stereo not given)
inactive: [1] > 100 µM | [2] > 100 µM | [3] > 100 µM | [4] > 100 µM | [5] > 100 µM | [6] > 100 µM | [7] > 100 µM | [8] > 100 µM | [9] > 100 µM | [10] > 100 µM | [11] > 100 µM | [12] > 100 µM | [13] > 100 µM | [14] > 100 µM | [15] > 100 µM | [16] > 100 µM

CCN1CCC(O)(c2ccccc2)C(C(=O)c2ccccc2)C1 (stereo not given)
inactive: [1] 21.7 µM | [2] 16.7 µM | [3] 17.4 µM | [4] 20.1 µM | [5] 17.1 µM | [6] 22.4 µM | [7] 2.62 µM | [8] 19.5 µM | [9] > 49.2 µM | [10] > 89.3 µM | [11] 45.4 µM | [12] 26.4 µM | [13] > 65.6 µM | [14] 62.5 µM | [15] > 100 µM | [16] > 67.1 µM

S=c1sc2sc(=S)sc2s1
inactive: [1] 28.8 µM | [2] > 100 µM | [3] 33.5 µM | [4] 96.8 µM | [5] 68.4 µM | [6] 84.9 µM | [7] 33.1 µM | [8] 5.92 µM | [10] 35.5 µM | [11] > 100 µM | [12] 50.1 µM | [13] 20.6 µM | [14] 23.9 µM | [15] > 100 µM | [16] 31.6 µM

NNC(=O)C1CCC(=O)N1S(=O)(=O)c1ccccc1 (stereo not given)
inactive: [1] > 100 µM | [2] > 100 µM | [3] > 100 µM | [4] > 100 µM | [5] > 100 µM | [6] > 100 µM | [7] > 100 µM | [8] > 100 µM | [9] > 100 µM | [10] > 100 µM | [11] > 100 µM | [12] > 100 µM | [13] > 100 µM | [14] > 100 µM | [15] > 100 µM | [16] > 100 µM

O=C1OC(c2ccccc2)=N/C1=C/N1CCCC1C(=O)O (stereo not given)
inactive: [2] > 100 µM | [3] > 100 µM | [5] > 100 µM | [6] > 100 µM | [7] > 100 µM | [8] > 100 µM | [9] > 100 µM | [10] > 100 µM | [11] > 100 µM | [12] > 100 µM | [13] > 100 µM | [14] > 100 µM | [15] > 100 µM | [16] > 100 µM

CN(C)/C(=N/C(=O)Nc1ccccc1)SCc1ccccc1
inactive: [1] 73.3 µM | [2] > 100 µM | [3] > 100 µM | [4] > 100 µM | [5] > 100 µM | [6] > 100 µM | [7] 91.2 µM | [8] > 100 µM | [9] > 100 µM | [10] > 100 µM | [11] > 100 µM | [12] > 100 µM | [13] > 100 µM | [14] > 100 µM | [15] > 100 µM | [16] > 100 µM

CN(C(=S)Cc1ccc(Cl)c(Cl)c1)C1CCCC[C@@H]1N1CCCC1 (stereo not given in full)
inactive: [1] 51.8 µM | [2] 62.1 µM | [4] 63.7 µM | [17] 26.6 µM | [5] 21.9 µM | [8] 28.5 µM | [9] > 100 µM | [11] 44.6 µM | [18] 17.8 µM | [13] 17.1 µM | [14] 55.7 µM | [15] 54.2 µM | [16] 63.4 µM

CNC(C)Cc1ccccc1OC (stereo not given) [METHOXYPHENAMINE HYDROCHLORIDE]
inactive: [1] > 100 µM | [2] > 100 µM | [3] > 100 µM | [4] > 100 µM | [5] > 100 µM | [6] > 100 µM | [7] > 100 µM | [8] > 100 µM | [9] > 100 µM | [10] > 100 µM | [11] > 100 µM | [12] > 100 µM | [13] > 100 µM | [14] > 100 µM | [15] > 100 µM | [16] > 100 µM

O=C(O)CC12C3C4C5C3C1C5C42 (stereo not given)
inactive: [1] > 100 µM | [2] > 100 µM | [3] > 100 µM | [4] > 100 µM | [5] > 100 µM | [6] > 100 µM | [7] > 100 µM | [8] > 100 µM | [9] > 100 µM | [10] 76.2 µM | [11] > 100 µM | [12] > 100 µM | [13] > 100 µM | [14] > 100 µM | [15] > 100 µM | [16] > 100 µM

CCCCCCCCCCCCCC1CCC(CC)N1 (stereo not given)
inactive: [1] 11.9 µM | [2] 7.23 µM | [3] 17.5 µM | [4] 11.3 µM | [5] 17.5 µM | [6] 15.1 µM | [7] 18.2 µM | [8] 5.14 µM | [9] 16.9 µM | [10] 7.28 µM | [11] 17.2 µM | [12] 20 µM | [13] 18.6 µM | [14] 17.6 µM | [15] 7.1 µM | [16] 20.8 µM

CO[C@@H]1C=C[C@@]23c4cc5c(cc4CN(C[C@@H]2O)[C@H]3C1)OCO5 [(+)-HAEMANTHAMINE]
inactive: [1] 6.47 µM | [2] 5.13 µM | [3] 6.38 µM | [4] 16.1 µM | [5] 20.1 µM | [7] 12.1 µM | [8] 14 µM | [9] 38 µM | [10] 9.06 µM | [11] 13.5 µM | [12] 27.9 µM | [13] 19.1 µM | [14] 28.6 µM | [16] 24 µM

Cn1cc(C(=O)c2ccccc2)c2ccccc2c1=O
inactive: [1] > 100 µM | [2] > 100 µM | [3] > 100 µM | [4] > 100 µM | [5] > 100 µM | [6] > 100 µM | [7] 34.4 µM | [8] 24.8 µM | [9] > 100 µM | [10] 23.4 µM | [11] > 100 µM | [12] > 100 µM | [13] 93.5 µM | [14] > 100 µM | [15] 18.8 µM | [16] > 100 µM
